{"source": "patent US12303471B2", "about": "“Methods of treatment of temozolomide-resistant glioma using coenzyme Q10” (BPGbio, Inc., priority 2015, dated 2025)", "key": {"[1]": {"tested_on": "triple-negative breast cancer cell line MDA-MB231", "assay": "Coenzyme Q10 sensitivity (IC50/IC90) of MDA-MB231 cells", "format": "cell-based", "conditions": "Homo sapiens, MDA-MB-231", "procedure": "(§1) Oxygen consumption rate (OCR) was measured during various states of succinate-fueled mitochondrial respiration in the triple-negative breast cancer cell line MDA-MB231 and the mutant K-Ras-driven pancreatic cancer cell line MIA PaCa-2 treated with different concentrations of Coenzyme Q10. […] The assays were performed in permeabilized adherent cells using the Seahorse XF96 Analyzer. Cells were permeabilized with XF PMP reagent and put into mitochondrial State 3 by replacing the growth media with Mitochondrial Assay Solution (containing mannitol, sucrose, KH2PO4, MgCl2, HEPES, and EGTA) supplemented with succinate, rotenone (to block reverse electron transfer back to Complex I), and ADP. OCR was measured in State 3, and then again upon sequential injection of oligomycin and FCCP to induce State 4o (o=oligomycin) and State 3u (u=uncoupled)."}, "[2]": {"tested_on": "mutant K-Ras-driven pancreatic cancer cell line MIA PaCa-2", "assay": "Coenzyme Q10 sensitivity (IC50/IC90) of MIA PaCa-2 cells", "format": "cell-based", "conditions": "Homo sapiens", "procedure": "as §1"}, "MDA-MB231": {"tested_on": "MDA-MB231", "assay": "Oxygen consumption rate during succinate-fueled mitochondrial respiration, permeabilized cells, Seahorse XF96", "format": "cell-based", "conditions": "100, 155 or 310 μM Coenzyme Q10, State 3, State 4o, State 3u, FIG. 1", "procedure": "as §1"}, "MIA PaCa-2": {"tested_on": "MIA PaCa-2", "assay": "Oxygen consumption rate during succinate-fueled mitochondrial respiration, permeabilized cells, Seahorse XF96", "format": "cell-based", "conditions": "100, 137 or 274 μM Coenzyme Q10, State 3, State 4o, State 3u, FIG. 1", "procedure": "as §1"}, "Rat C6 glioma cells": {"tested_on": "Rat C6 glioma cells", "assay": "Rat model of glioma (C6 glioma cell implantation)", "format": "in vivo, Sprague-Dawley rats", "procedure": "The C6 glioma cells develop into a glioma-like tumor. The rats bearing C6 gliomas were treated twice per day with 5, 10, 25 or 50 mg/kg Coenzyme Q10 by intraperitoneal or subcutaneous injection. Coenzyme Q10 treatment was initiated 1 day (n=3), 4 days (n=14), or 8 days (n=3) after implantation of C6 glioma cells. Coenzyme Q10 treatment was continued twice daily until the rat died, or until 34 days after implantation of glioma cells. […] Four of the rats treated with Coenzyme Q10 survived for at least 50 days after implantation of the C6 glioma cells, while none of the untreated control rats survived more than 15 days after implantation. In fact, two of the rats treated with Coenzyme Q10 survived more than 100 days post implantation (see below and FIGS. 9 and 10). Of the four rats that were alive at Day 50, 1 received 10 mg/kg Coenzyme Q10 starting 4 days after implantation, and 3 received 50 mg/kg Coenzyme Q10 starting 4 days or 8 days after implantation.\nEnlarged ventricles (hydrocephalus) were present 27 days post C6 implantation (FIG. 9A). At 34 days post-implantation, enlarged ventricles were stilled observed. In addition, there was a complex mass in the tumor area which was not clearly growing (FIG. 9B). Coenzyme Q10 treatment was discontinued at Day 34. […] At 27 days post C6 implantation, a complex mass was visible, but it was unclear if this mass represented a tumor or a scar (FIG. 10A). At 34 days post C6 implantation, a scar was visible at the site of implantation and improvement in the overall condition of the rat was observed that was not consistent with tumor growth (FIG. 10B)."}, "[3]": {"assay": "Coenzyme Q10 plasma levels in rats", "format": "in vivo", "conditions": "four days after treatment initiated", "procedure": "Coenzyme Q10 plasma levels were measured in the rats bearing C6 gliomas four days after Coenzyme Q10 treatment was initiated."}, "[4]": {"tested_on": "human U373 cells (TMZ-sensitive and TMZ-resistant GBM cells)", "assay": "TMZ-sensitive and TMZ-resistant U373 glioblastoma tumors in mice", "format": "in vivo", "conditions": "intravenous single daily dose of 4% Coenzyme Q10, 50 mg/kg/day", "source_text": "Equal numbers (1×10^7) of human U373 cells left untreated and thus sensitive (TMZ-sensitive) versus TMZ long-term treated (TMZ-resistant) GBM cells (see Calve et al., 2010, Neoplasia 12(9): 727-739, which is incorporated by reference herein in its entirety) are suspended in MATRIGEL® and injected into mice. Tumors are allowed to develop, and treatment is not initiated unless tumors are present.\nMice having tumors are randomized into 4 groups of 30 mice each as follows: • i. Group 1—No treatment, TMZ-sensitive • ii. Group 2—No treatment, TMZ-resistant • iii. Group 3—Intravenous single daily dose of 4% Coenzyme Q10, 50 mg/kg/day, TMZ-sensitive • iv. Group 4—Intravenous single daily dose of 4% Coenzyme Q10, 50 mg/kg/day, TMZ-resistant\nAnimals are observed for viability and tumor growth is monitored. Animal survival results are collected through day 400."}, "[5]": {"tested_on": "TMZ-resistant glioblastoma", "assay": "Coenzyme Q10 in TMZ-resistant glioblastoma in humans", "format": "in vivo", "conditions": "4% coenzyme Q10 nanosuspension, 24-, 48- or 96-hour infusion, monotherapy", "procedure": "The efficacy of Coenzyme Q10 in treating TMZ-resistant glioblastoma is evaluated in humans using Coenzyme Q10 monotherapy and Coenzyme Q10 in combination with chemotherapy. The Coenzyme Q10 is provided as a 4% coenzyme Q10 nanosuspension formulation as described in WO 2011/112900, the entire contents of which are expressly incorporated herein by reference. The study is designed with dosing schedules of a 24-hour infusion, 48-hour infusion, or 96-hour continuous infusion. This extended dosage schedule is intended to decrease Coenzyme Q10 Cmax values and maintain steady-state levels. Patient survival time and glioblastoma tumor status before, during, and after Coenzyme Q10 treatment is evaluated."}, "MDA-MB231 cells [6]": {"tested_on": "MDA-MB231 cells", "assay": "CellTiter-Fluor viability assay, co-treatment with Coenzyme Q10 and Complex II inhibitors", "conditions": "5 μM Atpenin A5 with 0-1600 μM Coenzyme Q10, 72 h; FIG. 4", "protocol": "To assess whether the effects of Coenzyme Q10 on Complex II-mediated respiration are functionally linked to Coenzyme Q10-induced cytotoxicity, MDA-MB231 cells were co-treated with two inhibitors of Complex II (atpenin A5 and malonate) which act at separate sites in Complex II.\nThe viability of MDA-MB231 cells treated with atpenin A5 and Coenzyme Q10 or malonate and Coenzyme Q10 was determined by a CellTiter-Fluor viability assay (Promega, Cat. No. G6080). Briefly, cells were co-treated with 0, 25, 50, 100, 200, 400, 800 or 1600 μM Coenzyme Q10 and either 5 μM Atpenin A5 or 5 mM malonic acid for 72 h, and then assayed per the manufacture's protocol."}, "MDA-MB231 cells [7]": {"tested_on": "MDA-MB231 cells", "assay": "Propidium iodide (PI) and Annexin V flow cytometry cell death assay", "format": "cell-based", "conditions": "malonate 5 mM with Coenzyme Q10 155 μM or 310 μM, 72 hours; FIG. 5", "procedure": "MDA-MB231 cells were treated with Coenzyme Q10 and/or malonate as shown below: • 1. Untreated • 2. Malonate (5 mM) • 3.\nAt 72 hours post treatment, cell culture supernatant (containing detached apoptotic cells) and adherent cells were harvested by trypsinization, centrifuged at 500 g for 5 minutes, and the resulting pellets were washed in staining media (PBS, 0.5% FBS). Cells were co-stained with FITC conjugated anti-Annexin-V (1:100, Molecular Probes) to detect PS exposure on the outer membrane surface and Propidium Iodine (PI, 1:2500, Molecular Probes) in 200 μL binding buffer (Molecular Probes). After a 15 minute incubation in the dark, the percentage of Annexin V+/PI+ cells was analyzed using an Accuri C6 Flow Cytometer (BD Biosciences) and samples were run within one hour after staining.\nThe cells were rated as follows: • 1. PI-negative and Annexin V-negative: viable • 2. PI-negative and Annexin V-positive: early apoptosis • 3. PI-positive and Annexin V-positive: late apoptosis • 4. PI-positive and Annexin V-negative: dead."}, "[8]": {"tested_on": "recurrent high-grade gliomas", "conditions": "patients with recurrent high-grade gliomas; cited from earlier work"}}, "data": [{"molecule": "COC1=C(OC)C(=O)C(CC=C(C)CCC=C(C)CCC=C(C)CCC=C(C)CCC=C(C)CCC=C(C)CCC=C(C)CCC=C(C)CCC=C(C)CCC=C(C)C)=C(C)C1=O", "note": "[Coenzyme Q10, 2-(3,7,11,15,19,23,27,31,35,39-decamethyltetraconta-2,6,10,14,18,22,26,30,34,38-decaenyl)-5,6-dimethoxy-3-methyl-cyclohexa-2,5-diene-1,4-dione]", "values": [{"measurement": "IC50", "setting": "[1]", "result": 155, "unit": "µM"}, {"measurement": "IC90", "setting": "[1]", "result": 310, "unit": "µM"}, {"measurement": "IC50", "setting": "[2]", "result": 137, "unit": "µM"}, {"measurement": "IC90", "setting": "[2]", "result": 274, "unit": "µM"}, {"measurement": "succinate-fueled respiration (oxygen consumption rate)", "setting": "MDA-MB231", "result": "significantly decreased by Coenzyme Q10 in a dose dependent manner"}, {"measurement": "succinate-fueled respiration (oxygen consumption rate)", "setting": "MIA PaCa-2", "result": "significantly decreased by Coenzyme Q10 in a dose dependent manner"}, {"measurement": "condition of surviving rat, coronal sections", "setting": "Rat C6 glioma cells; 10 mg/kg twice daily i.p. from day 4, discontinued Day 34, 103 days post-implantation, FIG. 9C", "result": "appeared normal with possible scar tissue in the tumor area"}, {"measurement": "rats alive at Day 50", "setting": "Rat C6 glioma cells; 10 mg/kg twice daily, starting 4 days after implantation", "result": 1}, {"measurement": "condition of surviving rat, coronal sections", "setting": "Rat C6 glioma cells; 50 mg/kg twice daily i.p. from day 4, 103 days after C6 implantation, FIG. 10C", "result": "clinically normal"}, {"measurement": "rats alive at Day 50", "setting": "Rat C6 glioma cells; 50 mg/kg twice daily, starting 4 days or 8 days after implantation", "result": 3}, {"measurement": "rats that survived for at least 50 days after implantation of the C6 glioma cells", "setting": "Rat C6 glioma cells; 5, 10, 25 or 50 mg/kg twice per day intraperitoneal, n=20, no untreated control (n=33) survived more than 15 days", "result": "Four"}, {"measurement": "rats that survived more than 100 days post implantation", "setting": "Rat C6 glioma cells; Coenzyme Q10 twice daily intraperitoneal, n=20", "result": "two"}, {"measurement": "dose that resulted in the highest Coenzyme Q10 plasma levels", "setting": "[3]; 5, 10, 25 or 50 mg/kg twice daily intraperitoneal, FIG. 12", "result": 25, "unit": "mg/kg"}, {"measurement": "Coenzyme Q10 plasma levels, intraperitoneal compared to subcutaneous injection", "setting": "[3]; rats bearing C6 gliomas, 50 mg/kg twice daily, FIG. 11", "result": "significantly higher"}, {"measurement": "glioblastoma tumor growth compared to control (untreated) animals", "setting": "[4]", "result": "significantly reduced glioblastoma tumor growth"}, {"measurement": "survival compared to control (untreated) animals", "setting": "[4]; through day 400", "result": "significantly increased survival"}, {"measurement": "tumor growth relative to standard chemotherapy", "setting": "[5]", "result": "reduce tumor growth"}]}, {"molecule": "COc1[nH]c(=O)c(C(=O)[C@@H](C)C[C@H](C)[C@@H](Cl)CCl)c(O)c1OC", "note": "[atpenin A5]", "values": [{"measurement": "effect of co-treatment on Coenzyme Q10-induced cytotoxicity", "setting": "MDA-MB231 cells [6]", "result": "enhanced cytotoxicity"}]}, {"molecule": "O=C(O)CC(=O)O", "note": "[malonate]", "values": [{"measurement": "effect on Coenzyme Q10-induced cell death", "setting": "MDA-MB231 cells [7]", "result": "attenuated Coenzyme Q10-induced cell death"}]}, {"molecule": "Bevacizumab: monoclonal antibody against vascular endothelial growth factor (VEGF)", "values": [{"measurement": "overall median survival", "setting": "[8]", "result": "improved overall median survival"}, {"measurement": "response rates", "setting": "[8]", "result": "32-62%"}]}]}
